# Laboratory results reported in US20230355613A1, “METHODS FOR TREATING PANCREATIC DUCTAL ADENOCARCINOMA” (HEALTH RESEARCH, INC., priority 2022, published 2023).
# “Also recorded” adds a separate entry of the source.
# Legend:
# [1] = test system: MiaPaCa2 cells; experiment: mRNA expression of RD histones (H2B, H3) by qPCR; format: cell-based, human
# Source text: (C) Heatmap of top differentially expressed genes upon JTE-607 treatment. Replication-dependent histones are colored in blue. Expression is plotted as transformed expression value. (D) mRNA expression of H2B and H3 in MiaPaCa2 cells treated with JTE-607. *, P<0.05, **, P<0.01, ***, P<0.001, Ordinary one-way ANOVA with Dunnett's multiple comparisons test. (E) DSeq2 normalized counts of H3F3A and H2AZ1 histone variants (replication-independent) in Panc1 cells treated with JTE-607. […]. (F-H) Volcano plots of Spearman's correlation of CPSF3 and all histone genes (F), replication-dependent histone genes (G) and replication-independent histone genes (H). Each dot represents a histone gene. Blue and red dots denote positive and negative correlation, respectively. (Spearman=−0.15>R>0.15, P<0.05).
# As JTE-607 has been previously administered to patients with no cytotoxic effects, we wanted to determine the mechanism underlying the ability of JTE-607 to attenuate PDAC cell proliferation. […] The Spearman's correlation for CPSF3 and 98 histone genes from the CPTAC database (Spearman=−0.15>R>0.15, P<0.05) (FIG. 4F) were calculated. […] A signature by selecting 50 RD histones and assessed PDAC patient survival based on gene expression was generated.
# RNA isolation and quantitative PCR. […] Data were analyzed in Microsoft Excel and graphed using GraphPad Prism (v 9.3.0).
# [2] = test system: Panc1 cells; experiment: RNA-seq of JTE-607 treated cells (APA, read-through, differential expression analysis); format: cell-based, human; details: Panc1, H3F3A and H2AZ1 normalized counts
# Source text: mRNA regulation is distinct between knockdown and chemical inhibition of CPSF3. Because JTE-607 inhibits CPSF3 catalytic activity without inducing target degradation, it was sought to understand if the function of CPSF3 is distinct between knockdown and inhibition. As CPSF3 is an integral component of the polyadenylation complex and the histone cleavage complex (HCC), it was hypothesized that CPSF3 disruption would dysregulate both alternative polyadenylation (APA) and histone mRNA processing. To test this hypothesis, CPSF3 knockdown and JTE-607 treated Panc1 cells were subjected to RNA-sequencing (RNA-seq). […] In the CPSF3 knockdown cells, PolyAMiner-Bulk detected 85 significant DAGs, of which 43 genes underwent 3′UTR lengthening (PolyAIndex>0.5; Padj<0.05) and 42 genes underwent 3′UTR shortening (PolyAIndex <−0.5; Padj<0.05) (FIG. 3A). In the CPSF3 inhibition model, PolyAMiner-Bulk detected 174 significant DAGs, of which 138 underwent 3′UTR lengthening (PolyAIndex>0.5; Padj<0.05) and 36 genes underwent 3′UTR shortening (PolyAIndex <−0.5; Padj<0.05) (FIG. 3B). […]
# JTE-607 inhibits expression of replication-dependent histones. JTE-607 induces global transcriptional read-through in Ewing's sarcoma cells. Therefore, it was asked whether JTE-607 would similarly induce global read-through in PDAC cells by applying the ARTDeco algorithm. […]
# [3] = healthy human volunteers; cited from earlier work
compound,measurement,setting,value
CCOC(=O)[C@H](Cc1ccccc1)NC(=O)c1cc(Cl)c(OCCN2CCN(C)CC2)c(Cl)c1O [JTE-607],"RD histone mRNA expression (H2B, H3)",[1],decrease
same,expression of RI histones,[2],not downregulated
same,adverse events,[3],no serious adverse effects; also recorded: no severe adverse events reported
